Tested on: irritable bowel syndrome
Assay: Clinical Study 3, immediate release darifenacin three times daily vs placebo in irritable bowel syndrome
Format: in vivo, human
Conditions: for Constipation % of patients reporting AEs corrected for placebo / Dry Mouth % of patients reporting AEs corrected for placebo / Global Rating % Reduction from baseline corrected for placebo / Loose Stool % Reduction from baseline corrected for placebo / Pain Score % Reduction from baseline corrected for placebo / Total AE % of patients reporting AEs corrected for placebo / Urgency % Reduction from baseline corrected for placebo / Vision % of patients reporting AEs corrected for placebo / Constipation % of patients reporting AEs / Dry Mouth % of patients reporting AEs / Global Rating % Reduction from baseline / Loose Stool % Reduction from baseline / Pain Score % Reduction from baseline / Total AE % of patients reporting AEs / Urgency % Reduction from baseline / Vision % of patients reporting AEs: Clinical Study 3, 12 weeks; for Constipation % of patients reporting AEs / Dry Mouth % of patients reporting AEs / Global Rating % Reduction from baseline / Loose Stool % Reduction from baseline / Pain Score % Reduction from baseline / Total AE % of patients reporting AEs / Urgency % Reduction from baseline / Vision % of patients reporting AEs: uncorrected
Description: The invention may be illustrated by the following clinical studies wherein the treatment of irritable bowel syndrome using darifenacin administered as a once-daily controlled (slow) release formulation in accordance with the prior art is compared with treatment using darifenacin administered as a thrice daily immediate release formulation in accordance with the present invention. Specifically, Clinical Studies 1 and 2 used controlled (slow) release formulations of darifenacin administered once daily (od) and Clinical Study 3 used an immediate release formulation of darifenacin administered three times daily (tid).
During each clinical study, four efficacy measures of irritable bowel syndrome severity were measured, viz. ‘Pain Score’ (Average daily pain score, a composite of severity and number of days of pain), ‘Loose Stool’ (Number of days on which loose or watery stool occurred), ‘Urgency’ (Number of days on which urgency occured) and so-called ‘Global Rating’ (Patient rating of their condition taking into account all symptoms, 0=no problems). Adverse events (AE) such as constipation, dry mouth and visual abnormalities were also recorded.
Clinical Study 3 was a multi-centre, double-blind, randomised, placebo-controlled parallel group study in which three dose strengths of darifenacin 1.25, 2.5 and 5 mg dosed tid were compared with placebo. Treatment lasted 12 weeks following a 2-week run-in period.
The immediate release dosage forms of darifenacin used in Clinical Study 3 were 1.25 mg, 2.5 mg and 5.0 mg capsules having the following compositions in a Size 3 capsule shell: […]

[1] = immediate release capsule 3 × 1.25 mg (tid)
[2] = immediate release capsule 3 × 2.5 mg (tid)
[3] = immediate release capsule 3 × 5.0 mg (tid)

NC(=O)C(c1ccccc1)(c1ccccc1)[C@@H]1CCN(CCc2ccc3c(c2)CCO3)C1 [darifenacin]
Constipation % of patients reporting AEs corrected for placebo [1]: 3.4% | Dry Mouth % of patients reporting AEs corrected for placebo [1]: 0.3% | Global Rating % Reduction from baseline corrected for placebo [1]: 9% | Loose Stool % Reduction from baseline corrected for placebo [1]: 8% | Pain Score % Reduction from baseline corrected for placebo [1]: 10% | Total AE % of patients reporting AEs corrected for placebo [1]: −4% | Urgency % Reduction from baseline corrected for placebo [1]: 11% | Vision % of patients reporting AEs corrected for placebo [1]: −2.2% | Constipation % of patients reporting AEs [1]: 6.3% | Dry Mouth % of patients reporting AEs [1]: 16% | Global Rating % Reduction from baseline [1]: 27% | Loose Stool % Reduction from baseline [1]: 16% | Pain Score % Reduction from baseline [1]: 33% | Total AE % of patients reporting AEs [1]: 36% | Urgency % Reduction from baseline [1]: 36% | Vision % of patients reporting AEs [1]: 1.4% | Constipation % of patients reporting AEs corrected for placebo [2]: 5.6% | Dry Mouth % of patients reporting AEs corrected for placebo [2]: 8.8% | Global Rating % Reduction from baseline corrected for placebo [2]: 11% | Loose Stool % Reduction from baseline corrected for placebo [2]: 22% | Pain Score % Reduction from baseline corrected for placebo [2]: 17% | Total AE % of patients reporting AEs corrected for placebo [2]: −3% | Urgency % Reduction from baseline corrected for placebo [2]: 17% | Vision % of patients reporting AEs corrected for placebo [2]: −0.1% | Constipation % of patients reporting AEs [2]: 5.6% | Dry Mouth % of patients reporting AEs [2]: 24.5% | Global Rating % Reduction from baseline [2]: 29% | Loose Stool % Reduction from baseline [2]: 30% | Pain Score % Reduction from baseline [2]: 40% | Total AE % of patients reporting AEs [2]: 37% | Urgency % Reduction from baseline [2]: 42% | Vision % of patients reporting AEs [2]: 3.5% | Constipation % of patients reporting AEs corrected for placebo [3]: 8.4% | Dry Mouth % of patients reporting AEs corrected for placebo [3]: 33.9% | Global Rating % Reduction from baseline corrected for placebo [3]: 14% | Loose Stool % Reduction from baseline corrected for placebo [3]: 44% | Pain Score % Reduction from baseline corrected for placebo [3]: 13% | Total AE % of patients reporting AEs corrected for placebo [3]: 20% | Urgency % Reduction from baseline corrected for placebo [3]: 32% | Vision % of patients reporting AEs corrected for placebo [3]: 4.2% | Constipation % of patients reporting AEs [3]: 11.3% | Dry Mouth % of patients reporting AEs [3]: 49.6% | Global Rating % Reduction from baseline [3]: 32% | Loose Stool % Reduction from baseline [3]: 52% | Pain Score % Reduction from baseline [3]: 36% | Total AE % of patients reporting AEs [3]: 60% | Urgency % Reduction from baseline [3]: 57% | Vision % of patients reporting AEs [3]: 7.8% | all four efficacy measures (Pain Score, Loose Stool, Urgency and Global Rating) (immediate release tid study, all three doses): marked improvements

From patent publication US6653339B2, “Method of treating irritable bowel syndrome” (Pfizer Inc., priority 2001, dated 2003)
